{
  "source": "patent US11299515B2",
  "about": "“Optimized peptides for targeting human nerves and their use in image guided surgery, diagnostics and therapeutic” (The Regents of the University of California, priority 2017, dated 2022)",
  "key": {"human sural nerve": {"test_system": "human sural nerve", "assay": "Topical application of FAM-labelled peptides on human nerve sections", "format": "binding", "excerpt": "To determine the affinity of phage selected peptides for binding to human nerve they were chemically synthesized by solid-phase synthesis and labeled with fluorescein at the C-terminus via a GGC linker. Peptides were topically applied to sectioned human sural nerve and human temporalis muscle to determine nerve to muscle contrast. […] To confirm binding and contrast of HNP401 for additional nerve types binding was compared in nerve and muscle with both HNP401 and NP41 on facial brachial plexus nerve (FIG. 9). […] FAM-HNP401 was additionally tested topically on ex-vivo tissue for labeling of mouse facial nerve with surrounding muscle (FIG. 10, J-M).\nTo test the affinity of selected phage display peptides for binding to human nerves, they were chemically synthesized by solid-phase synthesis and labeled with fluorescein at the C-terminus. Peptides were topically applied to sections of surgically harvested human sural nerve and temporalis muscle to determine nerve to muscle contrast for selected peptides and controls (FIG. 23). […] To quantify differential binding to nerve versus muscle, fluorescence signal intensity was measured for ROIs from the perineurium of select nerves and human temporalis muscle.\nHuman sural nerve, antebrachial nerve and laryngeal nerve and temporalis muscle were obtained under IRB protocol number 130837 for Dr. Quyen Nguyen. Human peripheral nerves (typically sural) were obtained from patients undergoing nerve resection procedures. Human nerves from prostate gland of two patients were acquired under Moores Cancer Centre Biorepository IRB protocol number 090401. Tissue were sectioned and mounted on glass slides or Cryojane tape. Tissue sections were placed in a humidifier chamber for 30 min before application of the peptide solution. Peptides were diluted to appropriate concentration in 0.5×HBSS prior to topical application. 50 μl of peptide solution of with known concentration (1 μM to 375 μM) were applied to 10 μm nerve sections on tape or slides and incubated for 30 minutes in a humidifier chamber. After incubation with peptide nerve sections were washed with twice with 0.5×HBSS and once with 1×PBS. A cover-slip was applied and slides were imaged immediately on either a Zeiss Lumar dissecting scope of Nikon A1 confocal microscope. For confocal imaging tissue sections of 10 μm thickness were imaged with 488 nm laser excitation 515 (25) and a 10× air objective and a […] size. For immunohistochemistry the confocal Images were acquired with a 20× air objective at 0.4 μm/pixel.\nImage J was used to analyze and compare images acquired using the confocal microscope and the Lumar dissecting scope. For each experimental set where probes were compared, we kept the acquisition parameters identical so as to directly compare the data obtained. […] All raw image files for a given experimental cohort were loaded at the same time into Image J as 16-bit tiff images. We then levelled the image for tissue treated with FAM-HNP401. Once these levels were set, the settings are propagated to all images in one step using Image J. The brightest image is set as the benchmark for all other images in the cohort to avoid saturating when the leveling is propagated."}, "[1]": {"assay": "Stability in ex-vivo human plasma (LC-MS)", "details": "37° C., 5 min vs 2 hours", "protocol": "An equal volume of 1:1 acetonitrile:water with 2% acetic acid is added to precipitate the protein matter, supernatant is extracted for analysis by LC-MS on a C18 reverse phase column with gradient of 9:1 H2O+0.05% TFA:Acetonitrile+0.05% TFA to 1:9 H2O+0.05% TFA:Acetonitrile+0.05% TFA in 20 min.\nThe bladder was drained with a syringe and sutured to avoid spillage and contamination around prostate. […] Stability of FAM-HNP401 in human plasma at 5 minutes and 2 hours was determined by incubation of peptide dye conjugate in human serum prior to analysis by mass spectrometry."}, "[2]": {"test_system": "autonomic (cavernosal) nerves from human prostate gland", "assay": "Topical application on autonomic nerves from human prostate gland", "format": "binding", "details": "100 μM topical, two patients", "protocol": "FAM-HNP401 and FAM-NP41 were then tested topically for binding to autonomic nerves, isolated from excised prostate glands of two human patients (FIGS. 12 and 13). […] Labelled fiber were confirmed as nerve using anti-neurofilament antibody SMI312 (red) and DAPI (blue) to show nuclear labeling (FIG. 12C). H&E staining was also done to confirm label tissue as nerve (FIG. 12D). Similar staining was obtained for peripheral sensory anti-brachial cutaneous nerve isolated from a human arm (FIGS. 12E-H).\nFAM-HNP401 and FAM-NP41 were tested for binding to autonomic nerves, isolated from the prostate glands of two human patients (FIGS. 19 and 29). […] Quantitation was not done because only 2 patient samples were available for testing as nerve resection during radical prostatectomy is only performed in instances of gross capsular invasion. Labelled fibers were confirmed as nerve using anti-neurofilament antibody SMI312 (red) with DAPI (blue) to show nuclear labeling (FIG. 19C). H&E staining also confirmed label tissue as nerve by histology (FIG. 19D). […] Similar staining using FAM-HNP401 was obtained for another sensory nerve (anti-brachial cutaneous) isolated from human arm showing the broad nerve binding activity of HNP401 (FIGS. 19E-H).\nHuman sural nerve, antebrachial nerve and laryngeal nerve and temporalis muscle were obtained under IRB protocol number 130837 for Dr. Quyen Nguyen. […]"}, "human laryngeal nerve": {"test_system": "human laryngeal nerve", "assay": "Dose response by topical application on human laryngeal nerve sections", "format": "binding", "protocol": "FIG. 25: Differential binding of nerve binding peptides to human and mouse tissue. Determination of optimal dose response by topical application of FAM-HNP401 on human laryngeal nerve sections at final concentration of 375 μM (A), 100 μM (B), 50 μM (C), 10 μM (D) and 1 μM (E), imaged with confocal microscopy with identical parameters and levelled equally for comparison. ** brightened 2 fold for viewing. Nerve to muscle contrast at high concentration of 375 μM for FAM-NP41 (F and G) and FAM-HNP401 (H and I) imaged on confocal microscopy and levelled for direct comparison. Mouse facial nerve (red arrows) with surrounding muscle treated with 375 μM (J), 100 μM (K) of FAM-NP41 or 375 μM (L), 100 μM (M) of FAMHNP401.\nDose response data set of FAM-HNP401 on human nerve tissue (FIG. 25:A-E) was acquired with 488 nm laser line, 10μm sections on glass at 10× magnification, 0.45 NA air objective lens. Gain set to 40, power set to 3% of laser power, pixel dwell value of 1.2 μs, aperture size of 1.1 μm and a pixel size of 0.3 μm/px with a 2 k by 2 k size image.\nHuman sural nerve, antebrachial nerve and laryngeal nerve and temporalis muscle were obtained under IRB protocol number 130837 for Dr. Quyen Nguyen. Human peripheral nerves (typically sural) were obtained from patients undergoing nerve resection procedures. […]"}},
  "note": "Entries after “also recorded” stand apart in the source; their conditions may differ. Residues, ends and D or L forms follow the SMILES beside them. *: point of attachment. Fluorescein(5-Mal) = O=C1OC2(c3ccc(O)cc3Oc3cc(O)ccc32)c2ccc(N3C(=O)CC(*)C3=O)cc21",
  "data": [
    {"smiles": "CC(=O)N[C@@H](CO)C(=O)NCC(=O)N[C@@H](CCC(N)=O)C(=O)N[C@H](C(=O)N1CCC[C@H]1C(=O)N[C@@H](Cc1c[nH]c2ccccc12)C(=O)N[C@@H](CCC(=O)O)C(=O)N[C@@H](CCC(=O)O)C(=O)N1CCC[C@H]1C(=O)N[C@@H](Cc1ccc(O)cc1)C(=O)N[C@@H](Cc1ccc(O)cc1)C(=O)N[C@H](C(=O)N[C@H](C(=O)N[C@@H](CCCCN)C(=O)N[C@@H](CCCCN)C(=O)N[C@@H](CO)C(=O)N[C@@H](CO)C(=O)NCC(=O)NCC(=O)N[C@@H](CSC1CC(=O)N(c2ccc3c(c2)C(=O)OC32c3ccc(O)cc3Oc3cc(O)ccc32)C1=O)C(N)=O)C(C)C)C(C)C)C(C)C", "note": "(stereo partly drawn) [FAM-HNP401] (Ac-SGQVPWEEPYYVVKKSSGGC(Fluorescein(5-Mal))-NH2; N-terminus and C-terminus assumed)", "values": [
      {"measurement": "fluorescent signal intensity compared to FAM-NP41", "setting": "human sural nerve; 100 μM topical, human sural nerve", "value": 10.9, "unit": "×"},
      {"measurement": "fluorescent signal intensity (ROIs of perineurium)", "setting": "human sural nerve; 100 μM topical, n=4", "value": "1374.44±425.96"},
      {"measurement": "binding / contrast among peptides and controls screened on human nerve", "setting": "human sural nerve; 100 μM topical, sural nerve and temporalis muscle", "value": "highest contrast"},
      {"measurement": "Nerve to muscle contrast", "setting": "human sural nerve; human sural nerve vs human temporalis muscle, 100 μM topical, n=4", "value": "3.03±0.57"},
      {"measurement": "signal for binding human nerve compared to FAM-NP41", "setting": "human sural nerve; topical, human nerve", "value": 10, "unit": "fold"},
      {"measurement": "stability in human plasma", "setting": "[1]", "value": "remain intact at 2 hours; also recorded: stable"},
      {"measurement": "fluorescent signal in human autonomic nerves compared to FAM-NP41", "setting": "[2]", "value": "significantly higher fluorescent signal"},
      {"measurement": "concentration giving optimal nerve contrast", "setting": "human laryngeal nerve; topical 1 to 375 μM", "value": "50 to 100", "unit": "µM"},
      {"measurement": "concentration at which signal from human nerve saturates", "setting": "human laryngeal nerve; topical up to 375 μM", "value": "≤ 100", "unit": "µM"}
    ]}
  ]
}
